According to US9926276B2, “Substituted benzamides with activity towards EP4 receptors” (DRACONIS PHARMA, S.L., priority 2013, dated 2018):

How the values were obtained:
human EP4 receptor [1] = biological target: T1, human EP4 receptor (Homo sapiens, UniProt P35408); assay: Human EP4 receptor radioligand binding assay (Test 1); design: expressed in transfected cells; host or cells: HEK-293 cell membranes; conditions: [3H]-PGE2 1 nM, transfected HEK-293 cell membranes; for Results of Test 1 (Binding assay, % inh): at 10 μM; for inhibition at 10 µM: read-out: Results of Test 1 (Binding assay, % inh)
Protocol: Test 1: Human EP4 Receptor Radioligand Binding Assay
To investigate binding properties of EP4 receptor ligands to human EP4 receptor, transfected HEK-293 cell membranes and [3H]-PGE2 (Perkin Elmer) were used. In 96-well plates the assay was carried out with a total reaction volume of 250 μl, containing 25 μl of membrane suspension (30 μg protein/well), 25 μl of [3H]-PGE2 (1 nM) in either absence or presence of 25 μl of either buffer or PGE2 (10 μM) for total and non-specific binding, respectively. Binding buffer contained 25 mM MES, 10 mM MgCl2 and 1 mM EDTA at pH 6.0. Plates were incubated at 25° C. for 120 minutes. After the incubation period, 200 μl of incubate were transferred to MultiScreen HTS, FB plates (Millipore), filtered and plates were washed 6 times with ice-cold 10 mM MES, 0.01% BSA at pH 6.0. Filters were dried and counted in a MicroBeta scintillation counter (Perkin-Elmer) using EcoScint liquid scintillation cocktail.
Percentage inhibition was calculated relating compounds activity to the 0% inhibition of the wells incubated with 1 nM [3H]-PGE2 alone (total binding) and 100% inhibition of the wells incubated with 1 nM [3H]-PGE2 plus 10 μM PGE2 (non-specific binding).

human EP4 receptor [2] = biological target: T1, human EP4 receptor; assay: Measurement of cAMP responses by Homogeneous Time Resolved Fluorescence (Test 2); assay type: cell-based; design: expressed in transfected cells; conditions: for Results of Test 2 (Functional assay, antagonist % inh): at 10 μM, PGE2 1 nM, HEK-293 cells stably expressing human EP4; for inhibition at 10 µM: HEK293, PGE2 1 nM, HEK-293 cells stably expressing human EP4, read-out: Results of Test 2 (Functional assay, antagonist % inh)
Protocol: Test 2: Measurement of cAMP Responses by Homogeneous Time Resolved Fluorescence
cAMP measurements on HEK-293 cells that stably expressed human EP4 receptors were performed by using a system based on Homogeneous Time Resolved Fluorescense (HTRF). This technology allows the direct measurement of cAMP in living cells. The principle of this assay is based on competition between cAMP produced by cells and cAMP-d2 conjugate for the binding with monoclonal anti-cAMP-cryptate conjugate. The HTRF cAMP kit from CisBio was used according to the manufacturer's directions. The experimental procedure was performed as stated below.
Suspended cells (30,000 cells per well) were added to 96-well culture plates in 30 μl of Optimem supplemented with 500 μM IBMX. Compounds were then added in 10 μl of stimulation buffer and incubated at 25° C. for 30 minutes followed by 10 μl of PGE2 to a final concentration of 1 nM. After 30 minutes at 25° C., the reaction was stopped lysing the cells with a mixture of 25 μl of cryptate and 25 μl of cAMP-d2 prepared in the lysis buffer supplied by the manufacturer. Plates were incubated for an additional hour at room temperature and read at 665 nm/620 nm using an UltraEvolution Plate reader (Tecan).
Antagonist percentage inhibition was calculated relating compounds activity to the 0% inhibition of the wells incubated with 1 nM PGE2 alone and 100% inhibition of the wells incubated with 1 nM PGE2 plus 1 μM of the reference antagonist.

T1 sequence (P35408 whole entry): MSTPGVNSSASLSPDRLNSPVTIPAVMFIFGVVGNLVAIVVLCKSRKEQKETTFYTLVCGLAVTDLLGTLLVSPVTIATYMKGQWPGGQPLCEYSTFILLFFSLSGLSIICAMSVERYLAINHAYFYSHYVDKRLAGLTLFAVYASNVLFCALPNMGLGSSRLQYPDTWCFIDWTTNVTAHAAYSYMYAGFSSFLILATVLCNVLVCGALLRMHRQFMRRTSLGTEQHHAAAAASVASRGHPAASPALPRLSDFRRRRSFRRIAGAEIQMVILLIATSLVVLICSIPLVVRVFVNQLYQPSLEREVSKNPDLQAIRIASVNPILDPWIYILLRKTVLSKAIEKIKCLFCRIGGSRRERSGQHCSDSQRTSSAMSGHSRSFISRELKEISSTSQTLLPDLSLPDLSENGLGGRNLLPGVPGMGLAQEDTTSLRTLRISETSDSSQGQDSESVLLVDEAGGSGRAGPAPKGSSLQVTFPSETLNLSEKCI

For Cc1ccc(-c2cccc(Cl)c2)cc1C(=O)Nc1cc(C(=O)O)ccc1C(C)C [Example 45, 3-(3′-Chloro-4-methylbiphenyl-3-ylcarboxamido)-4-isopropylbenzoic acid], the “Results of Test 1 (Binding assay, % inh)” value (human EP4 receptor [1]) was “# (% inh >75)” and the “Results of Test 2 (Functional assay, antagonist % inh)” value (human EP4 receptor [2]) was “$ (% inh >75)”.
With CC(C)c1ccc(C(=O)O)cc1NC(=O)c1cc(-c2cccc(Cl)c2)ccc1Cl [Example 46, 3-(3′,4-Dichlorobiphenyl-3-ylcarboxamido)-4-isopropylbenzoic acid] the “Results of Test 1 (Binding assay, % inh)” value (human EP4 receptor [1]) was “# (% inh >75)” and the “Results of Test 2 (Functional assay, antagonist % inh)” value (human EP4 receptor [2]) was “$ (% inh >75)”.
Molecule O=C(O)c1cc(Cl)c(NC(=O)c2nc(-c3cccc(Cl)c3)ccc2Cl)c(Cl)c1 [Example 47, 3,5-Dichloro-4-(3-chloro-6-(3-chlorophenyl)picolinamido)benzoic acid] has an inhibition at 10 µM (human EP4 receptor [1]) of over 75% and an inhibition at 10 µM (human EP4 receptor [2]) of over 75%.
Molecule Cc1cc(C(=O)O)cc(Cl)c1NC(=O)c1nc(-c2cccc(Cl)c2)ccc1Cl [Example 48, 3-Chloro-4-(3-chloro-6-(3-chlorophenyl)-picolinamido)-5-methylbenzoic acid] has an inhibition at 10 µM (human EP4 receptor [1]) of over 75% and an inhibition at 10 µM (human EP4 receptor [2]) of over 75%.
For O=C(O)c1cc(Cl)c(NC(=O)c2nc(N3CCCCC3)ccc2Cl)c(Cl)c1 [Example 57, 3,5-Dichloro-4-(3-chloro-6-(piperidin-1-yl)picolinamido)benzoic acid], the inhibition at 10 µM (human EP4 receptor [1]) was over 75% and the inhibition at 10 µM (human EP4 receptor [2]) was over 75%.
For Cc1ccc(-c2cccc(C(F)(F)F)c2)cc1C(=O)Nc1c(C)cc(C(=O)[O-])cc1C.[Na+] [Example 58, Sodium 3,5-dimethyl-4-(4-methyl-3′-(trifluoromethyl)biphenyl-3-ylcarboxamido)benzoate], the “Results of Test 1 (Binding assay, % inh)” value (human EP4 receptor [1]) was “# (% inh >75)” and the “Results of Test 2 (Functional assay, antagonist % inh)” value (human EP4 receptor [2]) was “$ (% inh >75)”.
COc1cc(Cl)cc(-c2ccc(C)c(C(=O)Nc3c(C)cc(C(=O)O)cc3C)c2)c1 [Example 59, 4-(3′-Chloro-5′-methoxy-4-methylbiphenyl-3-ylcarboxamido)-3,5-dimethylbenzoic acid] was tested, and the “Results of Test 1 (Binding assay, % inh)” value (human EP4 receptor [1]) was “# (% inh >75)” and the “Results of Test 2 (Functional assay, antagonist % inh)” value (human EP4 receptor [2]) was “$ (% inh >75)”.
Molecule O=C(O)c1cc(Cl)c(NC(=O)c2cc(-c3nccc(C(F)(F)F)n3)ccc2Cl)c(Cl)c1 [Example 60, Sodium 3,5-dichloro-4-(2-chloro-5-(4-(trifluoromethyl)pyrimidin-2-yl)benzamido)benzoate] has an inhibition at 10 µM (human EP4 receptor [1]) of over 75% and an inhibition at 10 µM (human EP4 receptor [2]) of over 75%.
